Measured values published in the supplement of paper PMC10307832.

Assays:
Test in all cases: relative viability (nuclei count vs DMSO), 5 days (fraction); higher = more cells survive
Vorinostat + Bortezomib = compound: O=C(CCCCCCC(=O)Nc1ccccc1)NO [Vorinostat] + CC(C)C[C@H](NC(=O)[C@H](Cc1ccccc1)NC(=O)c1cnccn1)B(O)O [Bortezomib] (partner 0.002 µM)
Procedure, shortened: (§1)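 Lung cancer cell lines were pin-tool dosed in 1536-well plates on the day after seeding, with either a lone drug or a fixed anchor-drug dose plus five library-drug doses (not always all listed) in √10 steps. Nuclei were counted on 4× images after 5 days. Relative viability is the ratio of treated-well to vehicle-well nuclei counts, with each value a median of duplicate plates.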

Vorinostat + Luminespib = compound: O=C(CCCCCCC(=O)Nc1ccccc1)NO [Vorinostat] + CCNC(=O)c1noc(-c2cc(C(C)C)c(O)cc2O)c1-c1ccc(CN2CCOCC2)cc1 [Luminespib] (partner 0.01 µM)
Procedure, shortened: as §1

Vorinostat + Alpelisib = compound: O=C(CCCCCCC(=O)Nc1ccccc1)NO [Vorinostat] + Cc1nc(NC(=O)N2CCC[C@H]2C(N)=O)sc1-c1ccnc(C(C)(C)C(F)(F)F)c1 [Alpelisib] (partner 2 µM)
Procedure, shortened: as §1

Vorinostat + Phenformin = compound: O=C(CCCCCCC(=O)Nc1ccccc1)NO [Vorinostat] + N=C(N)NC(=N)NCCc1ccccc1 [Phenformin] (partner 250 µM)
Procedure, shortened: as §1

Vorinostat + Olaparib = compound: O=C(CCCCCCC(=O)Nc1ccccc1)NO [Vorinostat] + O=C(c1cc(Cc2n[nH]c(=O)c3ccccc23)ccc1F)N1CCN(C(=O)C2CC2)CC1 [Olaparib] (partner 8 µM)
Procedure, shortened: as §1

| Cell Line | relative viability (Vorinostat + Bortezomib; first compound 0.253 µM) | relative viability (Vorinostat + Bortezomib; first compound 0.8 µM) | relative viability (Vorinostat + Bortezomib; first compound 2.53 µM) | relative viability (Vorinostat + Bortezomib; first compound 8 µM) | relative viability (Vorinostat + Luminespib; first compound 0.253 µM) | relative viability (Vorinostat + Luminespib; first compound 0.8 µM) | relative viability (Vorinostat + Luminespib; first compound 2.53 µM) | relative viability (Vorinostat + Luminespib; first compound 8 µM) | relative viability (Vorinostat + Alpelisib; first compound 0.253 µM) | relative viability (Vorinostat + Alpelisib; first compound 0.8 µM) | relative viability (Vorinostat + Alpelisib; first compound 2.53 µM) | relative viability (Vorinostat + Alpelisib; first compound 8 µM) | relative viability (Vorinostat + Phenformin; first compound 0.253 µM) | relative viability (Vorinostat + Phenformin; first compound 0.8 µM) | relative viability (Vorinostat + Phenformin; first compound 2.53 µM) | relative viability (Vorinostat + Phenformin; first compound 8 µM) | relative viability (Vorinostat + Olaparib; first compound 0.253 µM) | relative viability (Vorinostat + Olaparib; first compound 0.8 µM) | relative viability (Vorinostat + Olaparib; first compound 2.53 µM) | relative viability (Vorinostat + Olaparib; first compound 8 µM) |
| --- | --- | --- | --- | --- | --- | --- | --- | --- | --- | --- | --- | --- | --- | --- | --- | --- | --- | --- | --- | --- |
| NCI-H1755 | 0.95 | 0.934 | 0.2 | 0.174 | 0.442 | 0.661 | 0.572 | 0.166 | 1.03 | 0.92 | 0.326 | 0.137 | 0.646 | 0.579 | 0.413 | 0.204 | 0.953 | 0.86 | 0.307 | 0.205 |
| NCI-H1666 | 0.798 | 0.461 | 0.251 | 0.189 | 1.16 | 0.894 | 0.477 | 0.339 | 0.962 | 0.586 | 0.245 | 0.156 | 0.591 | 0.474 | 0.398 | 0.306 | 0.669 | 0.755 | 0.512 | 0.475 |
| LOU-NH91 | 0.514 | 0.475 | 0.438 | 0.354 | 0.376 | 0.417 | 0.329 | 0.283 | 0.792 | 0.676 | 0.452 | 0.322 | 0.774 | 0.663 | 0.628 | 0.348 | 0.959 | 0.832 | 0.587 | 0.404 |
| HARA | 1.1 | 0.928 | 0.149 | 0.0288 | 0.693 | 0.689 | 0.118 | 0.053 | 0.949 | 0.761 | 0.174 | 0.0907 | 0.443 | 0.364 | 0.231 | 0.0679 | 0.966 | 0.454 | 0.0979 | 0.0743 |
| NCI-H441 | 0.299 | 0.26 | 0.165 | 0.106 | 0.485 | 0.423 | 0.194 | 0.162 | 0.754 | 0.616 | 0.289 | 0.11 | 1.1 | 0.863 | 0.317 | 0.169 | 0.56 | 0.542 | 0.17 | 0.0865 |
| HCC-44 | 0.886 | 0.883 | 0.514 | 0.109 | 1.23 | 0.804 | 0.205 | 0.141 | 0.896 | 0.587 | 0.186 | 0.0876 | 0.147 | 0.108 | 0.0733 | 0.0646 | 1.04 | 1.05 | 0.658 | 0.317 |
| NCI-H460 | 1.12 | 0.783 | 0.0198 | 0.0125 | 0.0445 | 0.0295 | 0.0322 | 0.0199 | 0.609 | 0.351 | 0.0248 | 0.0089 | 0.611 | 0.4 | 0.0276 | 0.016 | 0.396 | 0.175 | 0.064 | 0.0336 |
| NCI-H596 | 0.942 | 0.693 | 0.663 | 0.258 | 0.933 | 1.05 | 0.476 | 0.265 | 0.871 | 0.482 | 0.278 | 0.248 | 0.838 | 0.587 | 0.474 | 0.272 | 0.725 | 0.512 | 0.326 | 0.204 |
| NCI-H1651 | 0.934 | 0.992 | 0.807 | 0.1 | 0.831 | 0.799 | 0.429 | 0.116 | 1.04 | 0.713 | 0.119 | 0.0787 | 0.408 | 0.326 | 0.0932 | 0.0635 | 0.187 | 0.17 | 0.098 | 0.0473 |
| EKVX | 1.14 | 1.11 | 0.561 | 0.175 | 0.984 | 0.952 | 0.659 | 0.17 | 0.992 | 0.951 | 0.4 | 0.14 | 0.228 | 0.238 | 0.225 | 0.134 | 1.02 | 0.833 | 0.335 | 0.15 |
| EPLC-272H | 0.742 | 0.744 | 0.275 | 0.12 | 0.497 | 0.195 | 0.273 | 0.158 | 0.928 | 0.893 | 0.396 | 0.175 | 0.321 | 0.332 | 0.104 | 0.084 | 0.827 | 0.565 | 0.2 | 0.13 |
| NCI-H2023 | 1.16 | 0.657 | 0.223 | 0.07 | 1.04 | 0.534 | 0.188 | 0.0701 | 0.623 | 0.509 | 0.292 | 0.0757 | 0.444 | 0.442 | 0.192 | 0.0722 | 0.403 | 0.296 | 0.113 | 0.0691 |
| NCI-H1734 | 1.14 | 0.96 | 0.417 | 0.109 | 0.24 | 0.185 | 0.165 | 0.0945 | 0.714 | 0.7 | 0.518 | 0.137 | 0.501 | 0.388 | 0.297 | 0.0963 | 0.739 | 0.66 | 0.31 | 0.0928 |
| NCI-H2405 | 1.06 | 1.01 | 0.952 | 0.206 | 0.995 | 1.03 | 0.596 | 0.164 | 1.01 | 0.835 | 0.16 | 0.0486 | 0.495 | 0.404 | 0.279 | 0.0401 | 1.02 | 0.888 | 0.313 | 0.0962 |
| LXF-289 | 1.08 | 0.923 | 0.348 | 0.057 | 0.763 | 0.596 | 0.299 | 0.0958 | 1.1 | 1.04 | 0.351 | 0.0687 | 0.595 | 0.558 | 0.306 | 0.0606 | 1.11 | 1.02 | 0.148 | 0.0576 |
| HCC-827 | 1.03 | 1.11 | 0.913 | 0.451 | 0.655 | 0.641 | 0.257 | 0.168 | 1.08 | 1.04 | 0.634 | 0.197 | 0.455 | 0.521 | 0.453 | 0.239 | 0.776 | 0.632 | 0.344 | 0.15 |
